Test system: 171881-019-R-J1-PDC tumor spheroids, viability
Assay: Anticancer human tumor 171881-019-R-J1-PDC patient-derived invasive breast carcinoma cell line growth inhibition [GQUAD]
Details: spheroids with HUVEC and MSC; for IC50: curve of first compound; for viability, T/C: stronger effect = lower value
Excerpt: DNA G-quadruplex Stabilizer Agents in Combinations in Complex Spheroids
A high-throughput screen of multi-cell type tumor spheroids was designed to identify active combinations of DNA G-quadruplex stabilizer agents and targeted small molecules. Complex spheroids include a stromal component modeled by human endothelial cells (HUVEC) and fibroblasts modeled by human mesenchymal stem cells (MSCs). The concentration ranges selected for each drug and investigational agent were based upon clinically achievable concentrations if the clinical Cmax of the agent was known.
Compounds. The drugs and investigational agents: pidnarulex (CX-5461; NSC782164), APTO-253 (NSC789042), BRACO-19 (NSC847499), peposertib (NSC802822), ceralasertib (NSC780249), elimusertib (NSC800525), camonsertib (NSC841442), AZD-1390 (NSC803789), olaparib (NSC753686), talazoparib (NSC767125), ART-558 (NSC835418), sotorasib (NSC818433), MRTX-1133 (NSC836407), SN-38 (NSC673596), topotecan (NSC609699), etoposide (NSC141540), doxorubicin (NSC123127), gemcitabine (NSC613327), 5-fluorouracil (NSC19893), paclitaxel (NSC125973), vemurafenib (NSC761431), panobinostat (NSC761190), R-306465 (JNJ-16241199; NSC773264), adavosertib (NSC754352), TP-3654 (NSC805149), carboplatin (NSC241240), KSQ-4279 (NSC840948), and staurosporine (NSC755774) were obtained from the National Cancer Institute (NCI) Developmental Therapeutics Program Chemical Repository (34). The FDA-approved anticancer drug set is available from the NCI Developmental Therapeutics Program. […] The stock solutions were prepared in dimethyl sulfoxide (DMSO, Sigma-Aldrich, St. Louis, MO, cat. D2650) at 800-fold the tested concentration and stored at -70 degrees C prior to their use. All drugs and investigational agents were tested over a range starting from a high concentration at or near the clinical Cmax and decreasing in half-log increments. If the clinical Cmax for an agent had not been determined, the highest concentration tested was 10 microM.
2.3 Cell Culture. All cells were maintained in an incubator at 37 degrees C and 5% CO2 with 95% humidity. The PDC lines were cultured according to standard operating procedures established by the NCI PDMR. All PDCs were thawed and cultured in Matrigel-coated flasks prepared with a working solution of 1X Ham's F-12 nutrient mix, without supplementation (Invitrogen, cat. 11765054), 100 U/mL penicillin-streptomycin (Invitrogen, cat. 15140122), and 2.5% Matrigel (Corning Inc., cat. 354248) for the first three passages. The 857933-349-R-J2-PDC line was cultured in 6C/Colon 1B media, which includes advanced DMEM/F-12 (Thermo Fisher Scientific, cat. 12634028), 10 mM HEPES (Thermo Fisher Scientific, cat. 15630080), 1X GlutaMAX supplement (Thermo Fisher Scientific, cat. 35050061), 0.1 mg/mL primocin (InvivoGen, cat. ant-pm-2), 10% defined fetal bovine serum, heat inactivated (HyClone Laboratories Inc., cat. SH30070.03HI), 50% L-WRN conditioned media (ATCC, cat. CRL-3276), 1.25 mM N-Acetyl-L-cysteine (Sigma-Aldrich, cat. A9165), 10 mM nicotinamide (Sigma-Aldrich, cat. N0636), 1X B-27 supplement (Thermo Fisher Scientific, cat. 17504044), 1X N-2 supplement (Thermo Fisher Scientific, cat. 17502048), 10 microM Y-27632 dihydrochloride (Tocris Bioscience, cat. 1254), and 50 ng/mL human EGF recombinant protein (Thermo Fisher Scientific, cat. PHG0311). The 485176-168-R4-J1-PDC line was cultured in Panc media, which includes all 6C/Colon 1B media components plus 100 ng/mL human FGF-10 (Thermo Fisher Scientific, cat. 100-26), 500 nM SB-431542 (Selleckchem, cat. S1067), and gastrin (Tocris, cat. 3006).
[…]

[1] = second compound 0.0316 µM, first compound 0.0316 µM
[2] = second compound 0.0316 µM, first compound 0.1 µM
[3] = second compound 0.0316 µM, first compound 0.316 µM
[4] = second compound 0.0316 µM, first compound 1 µM
[5] = second compound 0.0316 µM, first compound 3.16 µM
[6] = second compound 0.0316 µM, first compound 10 µM
[7] = second compound 0.1 µM, first compound 0.0316 µM
[8] = second compound 0.1 µM, first compound 0.1 µM
[9] = second compound 0.1 µM, first compound 0.316 µM
[10] = second compound 0.1 µM, first compound 1 µM
[11] = second compound 0.1 µM, first compound 3.16 µM
[12] = second compound 0.1 µM, first compound 10 µM
[13] = second compound 0.316 µM, first compound 0.0316 µM
[14] = second compound 0.316 µM, first compound 0.1 µM
[15] = second compound 0.316 µM, first compound 0.316 µM
[16] = second compound 0.316 µM, first compound 1 µM
[17] = second compound 0.316 µM, first compound 3.16 µM
[18] = second compound 0.316 µM, first compound 10 µM
[19] = second compound 1 µM, first compound 0.0316 µM
[20] = second compound 1 µM, first compound 0.1 µM
[21] = second compound 1 µM, first compound 0.316 µM
[22] = second compound 1 µM, first compound 1 µM
[23] = second compound 1 µM, first compound 3.16 µM
[24] = second compound 1 µM, first compound 10 µM
[25] = second compound 3.16 µM, first compound 0.0316 µM
[26] = second compound 3.16 µM, first compound 0.1 µM
[27] = second compound 3.16 µM, first compound 0.316 µM
[28] = second compound 3.16 µM, first compound 1 µM
[29] = second compound 3.16 µM, first compound 3.16 µM
[30] = second compound 3.16 µM, first compound 10 µM
[31] = second compound 10 µM, first compound 0.0316 µM
[32] = second compound 10 µM, first compound 0.1 µM
[33] = second compound 10 µM, first compound 0.316 µM
[34] = second compound 10 µM, first compound 1 µM
[35] = second compound 10 µM, first compound 3.16 µM
[36] = second compound 10 µM, first compound 10 µM
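Also: spheroids exposed to compounds for 7 days.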
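For viability, T/C in this document: 100% = DMSO vehicle control viability.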

CC(C)(O)C1CCC(Nc2ccc3ncc(-c4cccc(C(F)(F)F)c4)n3n2)CC1 (centres undefined) + CN(C)c1ccc(Nc2c3ccc(NC(=O)CCN4CCCC4)cc3nc3cc(NC(=O)CCN4CCCC4)ccc23)cc1
IC50 (second compound 0.0316 µM): 1860 nM
IC50 (second compound 0.1 µM): 1840 nM
IC50 (second compound 0.316 µM): < 31.6 nM
IC50 (second compound 1 µM): < 31.6 nM
IC50 (second compound 3.16 µM): < 31.6 nM
IC50 (second compound 10 µM): < 31.6 nM
viability, T/C [1]: 99.9%
viability, T/C [2]: 103%
viability, T/C [3]: 102%
viability, T/C [4]: 73.8%
viability, T/C [5]: 30%
viability, T/C [6]: 25.6%
viability, T/C [7]: 94.5%
viability, T/C [8]: 99.5%
viability, T/C [9]: 101%
viability, T/C [10]: 77.1%
viability, T/C [11]: 24.3%
viability, T/C [12]: 27.6%
viability, T/C [13]: 43.7%
viability, T/C [14]: 47.2%
viability, T/C [15]: 39.3%
viability, T/C [16]: 22.2%
viability, T/C [17]: 9.07%
viability, T/C [18]: 6.72%
viability, T/C [19]: 3.24%
viability, T/C [20]: 2.74%
viability, T/C [21]: 3.28%
viability, T/C [22]: 1%
viability, T/C [23]: 0.4%
viability, T/C [24]: 0.21%
viability, T/C [25]: 0.19%
viability, T/C [26]: 0.18%
viability, T/C [27]: 0.29%
viability, T/C [28]: 0.13%
viability, T/C [29]: 0.43%
viability, T/C [30]: 0.14%
viability, T/C [31]: 0.15%
viability, T/C [32]: 0.47%
viability, T/C [33]: 0.23%
viability, T/C [34]: 0.13%
viability, T/C [35]: 0.32%
viability, T/C [36]: 0.17%

COc1ncnc(C2CC2)c1-c1ncc2cnn(Cc3ccc(-c4nc(C(F)(F)F)cn4C(C)C)cc3)c2n1 + CN(C)c1ccc(Nc2c3ccc(NC(=O)CCN4CCCC4)cc3nc3cc(NC(=O)CCN4CCCC4)ccc23)cc1
IC50 (second compound 0.0316 µM): > 10000 nM
IC50 (second compound 0.1 µM): > 10000 nM
IC50 (second compound 0.316 µM): < 31.6 nM
IC50 (second compound 1 µM): < 31.6 nM
IC50 (second compound 3.16 µM): < 31.6 nM
IC50 (second compound 10 µM): < 31.6 nM
viability, T/C [1]: 86.7%
viability, T/C [2]: 100%
viability, T/C [3]: 101%
viability, T/C [4]: 104%
viability, T/C [5]: 92.8%
viability, T/C [6]: 86.3%
viability, T/C [7]: 97%
viability, T/C [8]: 93.3%
viability, T/C [9]: 90.3%
viability, T/C [10]: 88.9%
viability, T/C [11]: 80.3%
viability, T/C [12]: 67.1%
viability, T/C [13]: 39.9%
viability, T/C [14]: 37%
viability, T/C [15]: 35.6%
viability, T/C [16]: 28.8%
viability, T/C [17]: 24.3%
viability, T/C [18]: 11.6%
viability, T/C [19]: 3.06%
viability, T/C [20]: 1.98%
viability, T/C [21]: 2.28%
viability, T/C [22]: 1.99%
viability, T/C [23]: 1.79%
viability, T/C [24]: 1.02%
viability, T/C [25]: 0.27%
viability, T/C [26]: 0.25%
viability, T/C [27]: 0.36%
viability, T/C [28]: 0.22%
viability, T/C [29]: 0.34%
viability, T/C [30]: 0.18%
viability, T/C [31]: 0.13%
viability, T/C [32]: 0.32%
viability, T/C [33]: 0.16%
viability, T/C [34]: 0.41%
viability, T/C [35]: 0.41%
viability, T/C [36]: 0.19%
